Reference: US20030176314A1, “Compounds for the treatment of pain” (priority 2001, published 2003)

Experiments:
[1] = target: T1, human α1A adrenergic receptor (Homo sapiens, UniProt P35348); test: Binding at human α1A adrenergic receptor; details: Table 8; read-out: hα1A Ki
T1 construct: host or cells: LM(tk-) cells, line L-α1C
T1 sequence (P35348 1-466): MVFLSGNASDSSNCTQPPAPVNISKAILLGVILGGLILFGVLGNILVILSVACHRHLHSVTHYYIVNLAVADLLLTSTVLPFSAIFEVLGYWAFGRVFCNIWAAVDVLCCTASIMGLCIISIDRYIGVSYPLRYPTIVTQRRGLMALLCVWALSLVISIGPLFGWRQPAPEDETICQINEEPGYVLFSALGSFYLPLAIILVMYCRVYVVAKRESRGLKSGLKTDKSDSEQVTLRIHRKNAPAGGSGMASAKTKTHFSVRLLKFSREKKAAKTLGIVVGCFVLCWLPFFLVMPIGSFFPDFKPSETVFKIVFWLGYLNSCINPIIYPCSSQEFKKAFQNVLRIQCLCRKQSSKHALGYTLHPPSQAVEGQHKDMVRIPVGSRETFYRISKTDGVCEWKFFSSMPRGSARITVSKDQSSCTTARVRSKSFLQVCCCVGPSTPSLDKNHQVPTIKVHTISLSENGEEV
Description: α1 Human Adrenergic Receptors: To determine the binding of compounds to human α1 receptors, LM(tk−) cell lines stably transfected with the genes encoding the α1a, α1b, and α1d receptors were used. The nomenclature describing the α1 receptors was changed recently, such that the receptor formerly designated α1a is now designated α1d, and the receptor formerly designated α1c is now designated α1a. The cell lines expressing these receptors were deposited with the ATCC before the nomenclature change and reflect the subtype designations formerly assigned to these receptors. Thus, the cell line expressing the receptor described herein as the α1a receptor was deposited with the ATCC on Sep. […] The cell line expressing receptor described herein as the α1d receptor was deposited with the ATCC on Sep. […] The cell line expressing the α1b receptor is designated L-α1B, and was deposited on Sep.
(§1) The binding affinity (Ki) of these compounds were tested according to the protocols described herein at the following receptors; human α1A, α1B, α1D, α2A, α2B, and α2C adrenergic receptors; human Y1, Y2, Y4, and Y5 receptors; and N-Methyl-D-aspartic acid (NMDA) receptor channels. The binding interactions of these compounds were additionally tested at the norepinephrine (NE) transporter (NE uptake) and serotonin (5-hydroxytryptamine (5HT)) transporter (5HT uptake) according to protocols described herein

[2] = test system: distension induced contractions of the rat bladder; test: Distension-induced rhythmic contraction (DIRC) model, micturition reflex in anesthetized rats; assay type: in vivo
Description: This model is widely considered to be predictive for the actions of drugs to treat human urge incontinence (also refered to as detrusor instability or unstable bladder). Examples of drugs that are active in this model which also are used therapeutically in humans include oxybutynin and baclofen (Morikawa et al, 1992); imipramine and nortriptyline (Pietra et al, 1990); and nifedipine and terodiline (Guarneri et al, 1993).
Female Sprague Dawley rats weighing approximately 300 g were anesthetized with subcutaneous urethane (1.2 g/kg). The trachea was cannulated with PE240 tubing to provide a clear airway throughout the experiment. A midline abdominal incision was made and the left and right ureters were isolated. The ureters were ligated distally (to prevent escape of fluids from the bladder) and cannulated proximally with PE10 tubing. The incision was closed using 4-0 silk sutures, leaving the PE10 lines routed to the exterior for the elimination of urine. The bladder was canulated via the transurethral route using PE50 tubing inserted 2.5 cm beyond the urethral opening. This cannula was secured to the tail using tape and connected to a pressure transducer. To prevent leakage from the bladder, the cannula was tied tightly to the exterior urethral opening using 4-0 silk.
To initiate the micturition reflex, the bladder was first emptied by applying pressure to the lower abdomen, and then filled with normal saline in 100 μl increments (maximum=2 ml) until spontaneous bladder contractions occurred (typically 20-40 mmHg at a rate of one contraction every 2 to 3 minutes. Once a regular rhythm was established, vehicle (saline) or test compounds were administered i.v. to examine their effects on bladder activity. The effect of a compound which inhibited the micturition reflex was expressed as its “disappearance time”, defined as the time between successive bladder contractions in the presence of the test compound minus the time between contractions before compound administration.

[3] = target: T2, human α2B adrenergic receptor (Homo sapiens, UniProt P18089); test: Binding at human α2B adrenergic receptor; details: Table 8; read-out: hα2B Ki
T2 construct: host or cells: LM(tk-) cells, line L-NGC-α2B
T2 sequence (P18089 1-450): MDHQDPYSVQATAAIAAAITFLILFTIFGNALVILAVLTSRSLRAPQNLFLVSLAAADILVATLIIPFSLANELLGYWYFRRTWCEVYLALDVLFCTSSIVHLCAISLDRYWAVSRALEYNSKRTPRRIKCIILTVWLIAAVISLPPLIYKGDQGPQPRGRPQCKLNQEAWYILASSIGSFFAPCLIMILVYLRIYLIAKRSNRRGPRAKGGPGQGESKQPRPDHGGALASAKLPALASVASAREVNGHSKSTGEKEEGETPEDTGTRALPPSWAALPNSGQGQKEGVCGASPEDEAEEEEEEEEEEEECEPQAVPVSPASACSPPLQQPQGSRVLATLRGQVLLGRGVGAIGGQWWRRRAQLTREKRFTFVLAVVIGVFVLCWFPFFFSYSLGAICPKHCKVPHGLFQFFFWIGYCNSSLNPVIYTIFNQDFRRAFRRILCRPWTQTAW
Description: α2 Human Adrenergic Receptors: To determine the binding of compounds to human α2 receptors, LM(tk−) cell lines stably transfected with the genes encoding the α2A, α2B, and α2C receptors were used. The cell line expressing the α2A receptor is designated L-α2A, and was deposited on Nov. 6, 1992, under ATCC Accession No. CRL 11180. The cell line expressing the α2B receptor is designated L-NGC-α2B, and was deposited on Oct. 25, 1989, under ATCC Accession No. CRL 10275. The cell line expressing the α2C receptor is designated L-α2C, and was deposited on Nov. 6, 1992, under ATCC Accession No. CRL-11181. Cell lysates were prepared as described herin, and suspended in 25 mM glycyiglycine buffer (pH 7.6 at room temperature). Equilibrium competition binding assay were performed using […] (0.5 nM), and nonspecific binding was determined by incubation with 10 μM phentolamine. The bound radioligand was separated by filtration through GF/B filters using a cell harvester.
as §1

Ki [3] [µM]	Compound	Ki [1] [µM]	inhibition of distention-induced contractions of the rat bladder ([2]; 1 mg/kg, i.v.)	time for which inhibition of bladder activity persisted ([2]; i.v. administration, anesthetized rat (figure legends)) [min]
–	Cc1nc(NC(=N)N)nc2ccc3ccccc3c12 [Compound 1007A]	3.27	–	–
3.75	Cc1cc(NC(=N)N)nc2ccc(Cl)cc12 [Compound 4005A, N-(6-chloro-4-methyl-2-quinolinyl)guanidine]	–	complete inhibition	35
